Reference: patent publication US8846750B2, “Pharmaceutical and food compositions for preventing or treating diabetes or obesity” (Korea Ocean Research and Development Institute, priority 2010, dated 2014)

Assays:
[1] = tested on: other protein tyrosine phosphatases (PTPN5, PTPN6, PTPN7, PTPN13); assay: Selectivity for protein tyrosine phosphatases: other phosphatases of the panel; type: biochemical; settings: for inhibitory activity against other protein tyrosine phosphatases: 0, 50, 100 or 200 nM tested; for selectivity among protein tyrosine phosphatases: PTP-1b, PTPN2, PTPN5, PTPN6, PTPN7 and PTPN13
Procedure: In order to examine the selectivity of sodium lobarate for protein tyrosine phosphatases, the inhibitory activities of sodium lobarate against PTP-1b, PTPN2, PTPN5, PTPN6, PTPN7 and PTPN13 were examined by spectroscopically measuring the activities of the enzymes.
(§1) Specifically, to 0.5 mg/Ml of PTP-1b, PTPN2, PTPN5, PTPN6, PTPN7 or PTPN13 (Bioneer, Korea) in protein tyrosine phosphatase buffer (20 mM Tris-Hcl, pH 8.0, 0.75 mM NaCl, 0.5 mM EDTA, 5 mM β-mercaptoethanol, 50% glycerol), 0, 50, 100 or 200 nM sodium lobarate and the substrate [pTyr1146] insulin receptor (1142-1153, Sigma, USA) were added. Then, each of the mixtures was allowed to react at room temperature for 10-30 minutes, and then malachite green-molybdate dye solution (Sigma, USA) was added thereto and reacted at room temperature for 10 minutes. After completion of the reaction with the substrate, the absorbance at 620 nm was measured.
In order to examine the selectivity of Lobarin for protein tyrosine phosphatases, the inhibitory activities of Lobarin against PTP-1b, PTPN2, PTPN5, PTPN6, PTPN7 and PTPN13 were examined by spectroscopically measuring the activities of the enzymes.
as §1, with “Lobarin” for “sodium lobarate”
as §1, with “In order to examine the selectivity of Lobarstin for protein tyrosine phosphatases, the inhibitory activities of Lobarstin against PTP-1b, PTPN2, PTPN5, PTPN6, PTPN7 and PTPN13 were examined by spectroscopically measuring the activities of the enzymes. Specifically,” for “Specifically,”, “Lobarstin” for “sodium lobarate”

[2] = tested on: db/db mice (type 2 diabetic model animals); assay: Blood glucose level following 6 hours of fasting after intraperitoneal administration; type: in vivo; settings: 10 mg/kg intraperitoneally daily; for increase in the fasting blood glucose level compared with control group: days 0-21, 6 hours of fasting; for average blood glucose level after 6 hours of fasting: db/db mice
Procedure: In order to more accurately measure the antidiabetic effect of sodium lobarate, 200 μl of PBS for a control group and 10 mg/kg of sodium lobarate (PTP-1b activity inhibitory compound) for a test group was administered, respectively, intraperitoneally daily to 7-week-old male db/db mice (type 2 diabetic model animals, C57/BLKS/J-db/db, the Korea Research Institute of Bioscience and Biotechnology), and the blood glucose levels of the animals were measured twice a week. Herein, measurement of the blood glucose level was performed after 6 hours of fasting after intraperitoneal injection of sodium lobarate.
In order to more accurately measure the antidiabetic effect of Lobarin, 200 μl of PBS for a control group and 10 mg/kg of Lobarin for a test group was administered, respectively, intraperitoneally daily to 7-week-old male db/db mice (type 2 diabetic model animals, C57/BLKS/J-db/db, the Korea Research Institute of Bioscience and Biotechnology), and the blood glucose levels of the animals were measured twice a week. Herein, measurement of the blood glucose levels was performed after 6 hours of fasting after intraperitoneal injection of Lobarin.
In order to more accurately measure the antidiabetic effect of Lobarstin, 200 μl of PBS for a control group and 10 mg/kg of Lobarstin for a test group was administered intraperitoneally daily to 7-week-old male db/db mice (type 2 diabetic model animals, C57/BLKS/J-db/db, the Korea Research Institute of Bioscience and Biotechnology), and the blood glucose levels of the animals were measured twice a week. Herein, measurement of the blood glucose levels was performed after 6 hours of fasting after intraperitoneal injection of Lobarstin.

SMILES	inhibitory activity against other protein tyrosine phosphatases [1]	selectivity among protein tyrosine phosphatases [1]	increase in the fasting blood glucose level compared with control group [2]	average blood glucose level after 6 hours of fasting ([2]; day 0) [mg/dL]	average blood glucose level after 6 hours of fasting ([2]; day 7) [mg/dL]	average blood glucose level after 6 hours of fasting ([2]; day 14) [mg/dL]	average blood glucose level after 6 hours of fasting ([2]; day 21) [mg/dL]	average blood glucose level after 6 hours of fasting ([2]; day 3) [mg/dL]	average blood glucose level after 6 hours of fasting ([2]; day 10) [mg/dL]	average blood glucose level after 6 hours of fasting ([2]; day 17) [mg/dL]
CCC/C=C1/OC(=O)c2c(Oc3c(O)cc(O)c(C(=O)O)c3CCCCC)cc(OC)cc21 [Lobarstin]	no inhibitory activity	acts selectively only on PTP-1b	less than that in the control group	134	182	162	204			
CCCCCc1c(Oc2cc(OC)cc3c2C(=O)OC3(O)CCCC)c(O)cc(O)c1C(=O)O (centres unmarked) [Lobarin]	no inhibitory activity	acts selectively only on PTP-1b	less than that in the control group	152	155	261	340	141	198	287
CCCCCc1c2c(cc(O)c1C(=O)[O-])OC(=O)c1c(cc(OC)cc1C(=O)CCCC)O2.[Na+] [sodium lobarate]		acts selectively only on PTP-1b	less than that in the control group	141	185	232	313	142	206	236
